# Results taken from patent publication US12624024B2, “EP2 antagonist compounds” (Reservoir Neuroscience, Inc., priority 2021, dated 2026).
# pIC50: −log10 of the molar value.
# Biological target: T1, EP2 receptor (Homo sapiens, UniProt P43116)
# T1 construct: expressed in transfected cells; host or cells: CHO-K1 cells (ATCC), transient transfection with FuGENE 6
# Test: EP2 Potency Assay (cAMP TR-FRET, CHO-K1 cells transfected with EP2 receptor, PGE2 at EC80)
# Type: cell-based
# Details: CHO-K1 cells expressing EP2, prostaglandin E2 at EC80, read-out: EP2 Potency (IC50 category)
# Description: Compound potency was measured using a cAMP TR-FRET assay.
# After 6 hours incubation, the cell media was replaced with F12 medium supplemented with 10% FBS and 100 U/ml Pen-Strep. 24 hours after transfection, cells were harvested and seeded at a density of 3000 cells/well in a 384 well plate to perform the cAMP assay, using the LANCE Ultra cAMP assay kit (PerkinElmer).
# Plates were then centrifuged at 1000 rpm for 1 min, agitated at 600 rpm at R.T. for 2 min, and incubated at 25° C. for 5 min. The reference agonist, prostaglandin E2 (MCE), was added to each well at the appropriate concentration to reach its EC80 value. Plates were then centrifuged at 1000 rpm for 1 min, agitated at 600 rpm at R.T. for 2 min, and incubated at 25° C. for 30 min.
# A dose-response curve was prepared by plotting percent inhibition for each compound concentration, and then IC50 was calculated by fitting a curve to the plotted values and extrapolating the IC50 concentration.
# T1 sequence (P43116 whole entry): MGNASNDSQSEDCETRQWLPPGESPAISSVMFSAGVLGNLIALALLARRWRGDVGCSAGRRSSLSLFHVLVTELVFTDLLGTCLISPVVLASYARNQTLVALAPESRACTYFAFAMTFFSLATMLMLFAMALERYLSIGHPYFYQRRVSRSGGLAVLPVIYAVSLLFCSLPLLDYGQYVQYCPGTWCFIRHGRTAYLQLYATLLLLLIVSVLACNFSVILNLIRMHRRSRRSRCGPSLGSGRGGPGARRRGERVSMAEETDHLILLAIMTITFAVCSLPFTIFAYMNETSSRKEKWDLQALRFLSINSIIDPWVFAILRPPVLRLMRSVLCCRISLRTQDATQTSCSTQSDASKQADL
row,SMILES,pIC50
1,Fc1ccc2c(ccn2-c2cc(Cl)c3c(c2)CN(Cc2ncon2)CCO3)c1 [Compound 110],< 5.30
2,"Fc1ccc2c(ccn2-c2cc(Cl)c3c(c2)CN(Cc2nsc(Cl)n2)CCO3)c1 [Compound 115, 9-chloro-4-[(5-chloro-1,2,4-thiadiazol-3-yl)methyl]-7-(5-fluoroindol-1-yl)-3,5-dihydro-2H-1,4-benzoxazepine]",< 5.30
3,"Nc1nc(CN2CCOc3c(Cl)cc(-n4ccc5cc(F)ccc54)cc3C2)ns1 [Compound 117, 3-{[9-chloro-7-(5-fluoroindol-1-yl)-3,5-dihydro-2H-1,4-benzoxazepin-4-yl]methyl}-1,2,4-thiadiazol-5-amine]",< 5.30
4,"Fc1ccc2c(ccn2-c2cc(Cl)c3c(c2)CN(Cc2nn[nH]n2)CCO3)c1 [Compound 118, 9-chloro-7-(5-fluoroindol-1-yl)-4-(2H-1,2,3,4-tetrazol-5-ylmethyl)-3,5-dihydro-2H-1,4-benzoxazepine]",< 5.30
5,Oc1ccccc1CN1CCOc2c(Cl)cc(-n3ccc4cc(F)ccc43)cc2C1 [Compound 119],< 5.30
6,Oc1cccc(CN2CCOc3c(Cl)cc(-n4ccc5cc(F)ccc54)cc3C2)c1 [Compound 120],< 5.30
7,Oc1ccc(CN2CCOc3c(Cl)cc(-n4ccc5cc(F)ccc54)cc3C2)cc1 [Compound 121],< 5.30
8,"Fc1ccc2c(ccn2-c2cc(Cl)c3c(c2)CN(Cc2ccccc2C(F)F)CCO3)c1 [Compound 122, 9-chloro-4-(2-(difluoromethyl)benzyl)-7-(5-fluoro-1H-indol-1-yl)-2,3,4,5-tetrahydrobenzo[f][1,4]oxazepane]",< 5.30
9,Fc1ccc2c(ccn2-c2cc(Cl)c3c(c2)CN(Cc2cccc(C(F)F)c2)CCO3)c1 [Compound 123],< 5.30
10,Fc1ccc2c(ccn2-c2cc(Cl)c3c(c2)CN(Cc2ccc(C(F)F)cc2)CCO3)c1 [Compound 124],< 5.30
11,"O=C(O)[C@H]1CC[C@@H](CN2CCOc3c(Cl)cc(-n4ccc5cc(F)ccc54)cc3C2)CC1 [Compound 132, cis-4-{[9-chloro-7-(5-fluoroindol-1-yl)-3,5-dihydro-2H-1,4-benzoxazepin-4-yl]methyl}cyclohexane-1-carboxylic acid]",5.30 to 6.00

# Next, values leading:
row,pIC50,SMILES
1,5.30 to 6.00,"Fc1ccc2c(ccn2-c2cc(Cl)c3c(c2)CN(Cc2nnco2)CCO3)c1 [Compound 111, 9-chloro-7-(5-fluoroindol-1-yl)-4-(1,3,4-oxadiazol-2-ylmethyl)-3,5-dihydro-2H-1,4-benzoxazepine]"
2,5.30 to 6.00,Fc1ccc2c(ccn2-c2cc(Cl)c3c(c2)CN(Cc2nncs2)CCO3)c1 [Compound 112]
3,5.30 to 6.00,Fc1ccc2c(ccn2-c2cc(Cl)c3c(c2)CN(Cc2cnsn2)CCO3)c1 [Compound 113]
4,5.30 to 6.00,NC(=O)[C@H]1CC[C@@H](CN2CCOc3c(Cl)cc(-n4ccc5cc(F)ccc54)cc3C2)CC1 [Compound 125]
5,6.00 to 6.30,NC(=O)[C@H]1CC[C@H](CN2CCOc3c(Cl)cc(-n4ccc5cc(F)ccc54)cc3C2)CC1 [Compound 126]
6,6.00 to 6.30,"CNC(=O)[C@H]1CC[C@H](CN2CCOc3c(Cl)cc(-n4ccc5cc(F)ccc54)cc3C2)CC1 [Compound 127, trans-4-{[9-chloro-7-(5-fluoroindol-1-yl)-3,5-dihydro-2H-1,4-benzoxazepin-4-yl]methyl}-N-methylcyclohexane-1-carboxamide]"
7,5.30 to 6.00,"CNC(=O)[C@H]1CC[C@@H](CN2CCOc3c(Cl)cc(-n4ccc5cc(F)ccc54)cc3C2)CC1 [Compound 128, cis-4-{[9-chloro-7-(5-fluoroindol-1-yl)-3,5-dihydro-2H-1,4-benzoxazepin-4-yl]methyl}-N-methylcyclohexane-1-carboxamide]"
8,5.30 to 6.00,CN(C)C(=O)[C@H]1CC[C@@H](CN2CCOc3c(Cl)cc(-n4ccc5cc(F)ccc54)cc3C2)CC1 [Compound 129]
9,5.30 to 6.00,CN(C)C(=O)[C@H]1CC[C@H](CN2CCOc3c(Cl)cc(-n4ccc5cc(F)ccc54)cc3C2)CC1 [Compound 130]
10,6.00 to 6.30,O=C(O)[C@H]1CC[C@H](CN2CCOc3c(Cl)cc(-n4ccc5cc(F)ccc54)cc3C2)CC1 [Compound 131]
